Columns and labels:
[1] = cited from earlier work
[2] = test system: monocytic leukemia cell line U937; assay: Cell specificity of CD52 induction by ATRA, flow cytometry, U937; type: cell-based; settings: U937, ATRA 96 hours
Experimental: (§1) Leukemia cell lines. NB4 cells were a gift (Dr. James R. Downing, St. Jude Children's Research Hospital) and other leukemia cell lines (K562, U937 and HL-60) were purchased from ATCC (Manassas, Va.). All leukemia cell lines were cultured in RPMI 1640 medium plus 10% fetal calf serum. Cells (1×10^6) were treated with or without 1 μM ATRA (Sigma, St. Louis, Mo.) for 12, 24, 48, 72, and 96 hours at 37° C. in a 5% CO2 incubator in darkness. All experiments were repeated three times.
(§2) Flow cytometry. APL cells were treated as described above with 1 μM of ATRA for 24, 48, 72, and 96 hrs, and cell differentiation was evaluated by changes in cell morphology, CD11B and CD18 expression, and the NBT reduction test. ATRA treated cells (1×10^6) were stained with CD18-FITC (Becton Dickinson Biosciences San Jose, Calif.), CD11B-PE, and CD52-FITC antibodies (both from Serotec) following manufacturer's instructions. […] Samples were analyzed in triplicate.
(§3) Cell specificity of CD52 expression induction by ATRA. To determine the cell specificity of ATRA-induced CD52 expression, other leukemia cell lines were tested and compared with NB4 under assay conditions used for the NB4 cells.

NB4 cells [3] = assay: cDNA microarray analysis of ATRA-induced NB4 cell gene expression; settings: 96 hr
NB4 cells [4] = assay: Cell cycle analysis of ATRA-treated NB4 cells (propidium iodide, flow cytometry); type: cell-based, human; settings: 1 μM ATRA, 12-96 hrs, PI staining
Experimental: as §1
(§4) Assessment of cell differentiation. ATRA-induced NB4 cell differentiation was evaluated by morphological assessment, by flow cytometry for expression of cell surface antigens related to granulocytic differentiation and maturation such as CD11B/CD18-integrins (Gahmberg C G, Curr. Opin. Cell Biol. 9: 643-650, 1997) and by the nitroblue tetrazolium (NBT) reduction test, which measures myelocyte maturity (Idres N et al., Cancer Res. 61: 700-705, 2001). For cell cycle analysis, the cells were stained with propidium iodide (PI) and analyzed by a fluorescence-activated cell sorting analysis.

HL-60 cells = assay: Cell specificity of CD52 induction by ATRA, flow cytometry, HL-60; type: cell-based, human; settings: HL-60, lacking t(15;17), ATRA 96 hours
Experimental: as §1
Reverse transcriptase (RT)-PCR. NB4 cells were cultured and treated with or without ATRA as described above. Some assays were performed using other cell lines including the erythroblastic leukemia cell line K562, the monocytic leukemia cell line U937 and the HL-60 cell line, a human myeloblastic leukemia cell line lacking the t(15; 17) translocation. Total RNA was isolated from the cells and used for CD52 cDNA synthesis by RT-PCR. The cDNA was synthesized in a 20 μl reaction mixture containing 5 μg RNA, 5 mM dNTP, 0.1 μg random primers and 200 U reverse transcriptase, and the mixture was incubated at 42° C. for 1 hr. […]
Flow cytometry. APL cells were treated as described above with 1 μM of ATRA for 24, 48, 72, and 96 hrs, and cell differentiation was evaluated by changes in cell morphology, CD11B and CD18 expression, and the NBT reduction test. […] Samples were analyzed in triplicate. […]

NB4 cells [5] = assay: ATRA-induced NB4 cell differentiation (morphology, CD11B/CD16 flow cytometry, NBT reduction test); type: cell-based, human; settings: 1 μM ATRA
Experimental: as §1, §4

NB4 cells [6] = assay: Western blot analysis of CD52 protein in NB4 cells; type: cell-based, human; settings: ATRA-treated vs untreated
Experimental: Western blot analysis. Cell lysates from control and ATRA-treated NB4 cells were separated on a 4%-20% gradient SDS-polyacrylamide gel and then transferred to PVDF membrane (Millipore, Bedford, Mass.) using a semidry electroblot chamber. The membrane was blocked overnight with 5% dry-milk in Tris-buffered saline and then incubated with anti-CD52 antibody (Serotec, Inc., Raleigh, N.C.) for 1 hour at room temperature. The binding of primary antibody was detected by using peroxidase-coupled second antibody (Sigma). Bound peroxidase was detected by the Super Signal Substrate (Pierce, Rockford, Ill.).

NB4 cells [7] = assay: RT-PCR analysis of CD52 mRNA in NB4 cells; type: cell-based, human; settings: ATRA 12-96 hr, not detectable in untreated cells
Experimental: Reverse transcriptase (RT)-PCR. NB4 cells were cultured and treated with or without ATRA as described above. Some assays were performed using other cell lines including the erythroblastic leukemia cell line K562, the monocytic leukemia cell line U937 and the HL-60 cell line, a human myeloblastic leukemia cell line lacking the t(15; 17) translocation. Total RNA was isolated from the cells and used for CD52 cDNA synthesis by RT-PCR. The cDNA was synthesized in a 20 μl reaction mixture containing 5 μg RNA, 5 mM dNTP, 0.1 μg random primers and 200 U reverse transcriptase, and the mixture was incubated at 42° C. for 1 hr. The cDNA was amplified for 30 cycles with denaturation at 94° C. for 30 seconds, annealing at 56° C. for 30 seconds and extension at 72° C. for 1 min. Amplified products were sequenced and confirmed by comparison with sequence data from GenBank.

newly diagnosed APL = settings: ATRA therapy; cited from earlier work
[8] = test system: erythroblastic leukemia line K562; assay: Cell specificity of CD52 induction by ATRA, flow cytometry, K562; type: cell-based; settings: K562, ATRA 96 hours
Experimental: as §1, §2, §3

NB4 cells [9] = assay: Flow cytometry of CD52, CD11B, CD18 surface expression in NB4 cells
[10] = test system: normal and malignant lymphocytes; settings: clinical studies; cited from earlier work

CC1=C(/C=C/C(C)=C/C=C/C(C)=C/CO)C(C)(C)CCC1 [retinol]
solubility in ethanol, methanol, ether, fats, and oil [1]: soluble
solubility in water or aqueous salt solutions [1]: practically insoluble

CC1=C(/C=C/C(C)=C/C=C/C(C)=C/C(=O)O)C(C)(C)CCC1 [ATRA, all-trans-retinoic acid]
expression of CD11B [2]: slightly increased
expression of CD52 [2]: did not affect
CD52 mRNA expression, fold over control (NB4 cells [3]; 1 μM ATRA, peak): 6.49 fold
expression of gene gf206—339D4, fold of control (NB4 cells [3]; ATRA): more than 58 fold
S-phase cells (NB4 cells [4]): decrease of S-phase cells
CD52 up-regulation (HL-60 cells): not up-regulated
maximal differentiation (CD11B+ and NBT+ cells) (NB4 cells [5]; 24 to 96 hrs and later): 85%
morphologic change in NB4 cells (NB4 cells [5]; end of 24 hrs): No obvious morphologic change
CD16 expression (NB4 cells [5]; flow cytometry): failed to express CD16
CD52 protein bands of 21-28 kDa (NB4 cells [6]): only detected in ATRA-treated cells
expression of CD52 mRNA (NB4 cells [7]): rapidly induced
complete remission of patients (newly diagnosed APL): up to 85%
CD11B expression [8]: did not induce
CD52 expression [8]: did not induce
maximal CD52 surface expression (NB4 cells [9]; 1 μM ATRA, 48 to 96 hr): ~90%
cell population co-expressing CD11B and CD52 (NB4 cells [9]; 96 hr of ATRA exposure): approximately 80%
cells expressing only CD11B (NB4 cells [9]; 96 hr of ATRA exposure): approximately 10%
cells expressing only CD52 (NB4 cells [9]; 96 hr of ATRA exposure): approximately 5%
up-regulation of both CD11B and CD52 (NB4 cells [9]; NB4, ATRA 96 hours): robust up-regulation

CAMPATH-1H: A humanized anti-CD52 monoclonal antibody
depletion of normal and malignant lymphocytes in vivo [10]: extremely effective

— patent US20030124127A1, “Targeting leukemia cells” (priority 2001, published 2003)
